# “Also recorded” adds a separate entry of the source. Like-named read-outs stand apart in the source and are kept apart here.
# How the values were obtained:
# [1] = biological target: T1, human GluN1^FA,TL/GluN3A receptors (Homo sapiens, UniProt Q8TCU5); experiment: Two-electrode voltage-clamp recordings of GluN1^FA,TL/GluN3A receptors in Xenopus oocytes; assay type: cell-based; settings: for % Inhibition GluN1^FATL/GluN3A: fitted maximum at saturating test compound
# T1 construct: Human GluN3A (NP_597702.2) and rat GluN3B (NP_579842.2) were synthesized and subcloned into SP6 plasmids; expressed in transfected cells; host or cells: Xenopus laevis oocytes, cRNA injection (GluN1:GluN3 1:3)
# T1 sequence (Q8TCU5 24-1115, other chains not shown): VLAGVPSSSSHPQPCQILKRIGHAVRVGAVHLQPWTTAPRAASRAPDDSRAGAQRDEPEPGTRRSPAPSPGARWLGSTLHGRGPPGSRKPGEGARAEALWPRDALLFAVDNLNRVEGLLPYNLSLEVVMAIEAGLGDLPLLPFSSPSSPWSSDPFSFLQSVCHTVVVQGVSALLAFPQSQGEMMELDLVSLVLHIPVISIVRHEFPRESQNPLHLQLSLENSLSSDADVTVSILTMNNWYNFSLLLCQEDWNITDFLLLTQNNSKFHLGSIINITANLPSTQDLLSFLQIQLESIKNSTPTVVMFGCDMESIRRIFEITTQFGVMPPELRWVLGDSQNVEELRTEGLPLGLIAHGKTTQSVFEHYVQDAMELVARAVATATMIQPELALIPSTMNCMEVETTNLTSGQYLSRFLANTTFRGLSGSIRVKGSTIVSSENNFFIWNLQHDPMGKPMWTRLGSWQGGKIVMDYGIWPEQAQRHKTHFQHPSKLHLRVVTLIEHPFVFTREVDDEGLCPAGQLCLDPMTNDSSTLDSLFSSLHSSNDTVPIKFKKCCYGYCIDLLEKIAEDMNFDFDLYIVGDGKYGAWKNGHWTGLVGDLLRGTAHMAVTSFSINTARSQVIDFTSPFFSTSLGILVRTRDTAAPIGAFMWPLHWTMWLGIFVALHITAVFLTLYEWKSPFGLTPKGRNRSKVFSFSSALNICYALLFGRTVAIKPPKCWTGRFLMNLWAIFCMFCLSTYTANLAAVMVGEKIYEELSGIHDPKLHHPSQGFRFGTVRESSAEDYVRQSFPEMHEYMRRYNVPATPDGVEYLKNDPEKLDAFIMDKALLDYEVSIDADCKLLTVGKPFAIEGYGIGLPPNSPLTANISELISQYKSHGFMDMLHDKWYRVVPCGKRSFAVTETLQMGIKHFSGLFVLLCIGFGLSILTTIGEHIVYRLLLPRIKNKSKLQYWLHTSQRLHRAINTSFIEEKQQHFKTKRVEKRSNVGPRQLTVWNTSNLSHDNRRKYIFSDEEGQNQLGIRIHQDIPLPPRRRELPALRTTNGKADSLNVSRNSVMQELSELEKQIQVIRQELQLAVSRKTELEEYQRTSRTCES
# How it was run: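 Human GluN1 with human GluN3A cRNA (1:3) in oocytes, recorded 2-5 days post-injection at 23° C, holding −40 mV, in Ba2+-containing recording solution pH 7.4. Compounds screened at 10 or 30 μM; those inhibiting >20% given concentration-response fits for IC50, Hill slope and residual inhibition.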
# [2] = system: GluN1/GluN2 NMDA receptors (GluN2A, GluN2B, GluN2C, GluN2D); experiment: Recombinant GluN1/GluN2 NMDA receptors in Xenopus oocytes (selectivity); assay type: cell-based, rat
# [3] = biological target: T2, GluK2 kainate receptors (Rattus norvegicus, UniProt P42260); experiment: Kainate receptors in Xenopus oocytes (selectivity); assay type: cell-based; settings: 20 μM
# T2 construct: expressed in transfected cells; host or cells: Xenopus laevis oocytes, cRNA injection
# T2 sequence (P42260 32-908): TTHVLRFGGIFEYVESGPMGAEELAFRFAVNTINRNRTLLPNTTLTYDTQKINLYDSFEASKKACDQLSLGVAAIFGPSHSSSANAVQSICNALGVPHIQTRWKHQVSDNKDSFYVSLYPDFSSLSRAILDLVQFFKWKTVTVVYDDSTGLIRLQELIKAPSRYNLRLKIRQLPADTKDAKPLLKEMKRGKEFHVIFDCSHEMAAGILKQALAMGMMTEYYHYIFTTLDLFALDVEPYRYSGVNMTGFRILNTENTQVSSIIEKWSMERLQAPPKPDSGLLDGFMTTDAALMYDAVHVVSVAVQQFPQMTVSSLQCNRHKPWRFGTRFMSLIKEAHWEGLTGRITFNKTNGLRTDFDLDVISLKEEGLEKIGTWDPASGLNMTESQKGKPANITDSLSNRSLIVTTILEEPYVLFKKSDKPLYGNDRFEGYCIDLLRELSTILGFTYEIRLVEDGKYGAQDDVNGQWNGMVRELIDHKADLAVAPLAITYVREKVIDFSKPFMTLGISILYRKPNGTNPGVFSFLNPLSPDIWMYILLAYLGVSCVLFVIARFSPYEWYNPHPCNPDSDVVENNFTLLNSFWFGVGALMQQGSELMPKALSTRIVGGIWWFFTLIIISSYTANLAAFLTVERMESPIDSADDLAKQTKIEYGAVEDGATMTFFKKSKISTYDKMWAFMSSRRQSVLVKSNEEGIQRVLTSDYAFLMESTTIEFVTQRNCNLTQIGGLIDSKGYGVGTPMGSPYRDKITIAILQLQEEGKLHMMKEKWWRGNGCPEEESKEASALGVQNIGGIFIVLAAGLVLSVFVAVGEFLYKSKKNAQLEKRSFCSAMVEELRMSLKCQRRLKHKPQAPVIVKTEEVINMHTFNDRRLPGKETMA
# Experimental: (§1) The numbers of oocytes recorded are in parentheses.
# (§2) The cDNA was linearized by restriction enzymes (Thermo Fisher Scientific, Lithuania), and the cRNA encoding the receptor subunits was synthesized from the linear template cDNA using the mMESSAGE mMACHINE kit (Invitrogen/Thermo Fisher Scientific, Lithuania). The α1β1δγ nAChR subunits were injected at a 1:1:1:1 ratio while α4 […] nAChR subunits were injected at a 1:1 ratio. The cDNAs encoding GABA and glycine subunits were provided by Dr. D. Weiss (University of Texas Health Science Center at San Antonio). The cDNAs encoding nAChR subunits were provided by Drs. R. Papke (University of Florida) and S. Heinemann (Salk Institute). The cDNA encoding the purinergic receptor was provided by Dr. R. Hume (University of Michigan).
# (§3) Responses in the presence of EU1180-438 were expressed as a percent of control calculated as the average of the responses before and after EU1180-438 exposure. […]
# (§4) Defolliculated Xenopus laevis oocytes (stage V-VI) were obtained from Ecocyte BioScience (Austin, Texas), or prepared from commercially available Xenopus ovaries (Xenopus 1, Dexter, MI) as previously described (Hansen, et al., Mol. Pharmacol., 2013). […] Recording electrodes were filled with 0.3-3.0 M KCl, and current responses were recorded at a holding potential of −40 mV.
# [4] = system: nicotinic receptors; experiment: Nicotinic acetylcholine receptors in Xenopus oocytes (selectivity); assay type: cell-based, rat; settings: 20 μM
# Experimental: as §1, §2, §3, §4
# [5] = system: GluN1/GluN2 NMDA receptors; experiment: Whole-cell patch-clamp of NMDA-activated responses in hippocampal CA1 pyramidal cells, acute brain slices; assay type: cell-based, mouse; settings: 30 μM; 0.5 mM NMDA
# [6] = Maximum solubility by nephelometry; assay type: physicochemical; settings: aqueous buffer, kinetic from dmso stock; oocyte recording buffer (pH 7.4)
# Experimental: The maximum solubility for the synthesized compounds was determined using a BMG Labtech Nephelostar™ nephelometer according to the manufacturer's instructions. For example, EU1180-438 was taken up in DMSO to prepare a 10 mM stock solution. The 10 mM solution was serially diluted into eleven concentrations (10, 5, 2.5, 1.25, 0.625, 0.3125, 0.1563, 0.0781, 0.0391, 0.0193, and 0.0098 mM) at the top of a clear-bottom 96-well plate. These were then each distributed into the subsequent 7 wells in 2.5 μL increments and diluted 100-fold (2.5 μL to 250 μL) with oocyte recording buffer (pH 7.4) into concentrations of 100, 50, 25, 12.5, 6.25, 3.125, 1.563, 0.781 0.391, 0.193, and 0.098 μM. The 96-well plate was shaken gently for 90 minutes before analysis.
smiles,measurement,setting,value
"COc1ccc(OCC(c2ccc(OC)cc2)N2Cc3ccccc3C2=O)cc1 (racemic) [EU1180-438, 2-(2-(4-methoxyphenoxy)-1-(4-methoxyphenyl)ethyl)isoindolin-1-one]",effect of increasing glycine concentration on inhibition,[1],not altered by increasing glycine concentration
same,voltage dependence of inhibition (current-voltage relationship),[1]; 4 μM compound,no effect of holding voltage on EU1180-438 inhibition
same,Slope,"[1]; concentration-response curve, 1000 μM glycine",1.24
same,% Inhibition GluN1^FATL/GluN3A,[1]; pH 6.8,"72%^a, (n = 7)"
same,% Inhibition GluN1^FATL/GluN3A,[1]; pH 7.4,"82%, (n = 18)"
same,maximal inhibition at saturating concentrations,[1]; pH 6.8,72%
same,IC50,"[1]; pH 6.8, holding potential −40 mV, read-out: EC50, (95% CI) GluN1^FATL/GluN3A",4.2 µM
same,IC50,"[1]; pH 6.8, read-out: IC50",4.2 µM
same,inhibition at a saturating concentration,[1]; pH 7.4,82%
same,IC50,"[1]; pH 7.4, holding potential −40 mV, read-out: EC50, (95% CI) GluN1^FATL/GluN3A",3.5 µM
same,remaining activity at 10 µM,"[1]; read-out: response in the presence of compound, % of control",29 ± 4.2%
same,minimum,"[1]; residual response at saturating concentration, 1000 μM glycine",18%
same,IC50,"[1]; responses activated by 1000 μM glycine, pH 7.4, read-out: IC50",3.5 µM
same,activity toward recombinant GluN1/GluN2 NMDA receptors (GluN2A-D),[2],no detectable activity
same,activity at GluN1/GluN2 NMDA receptors,"[2]; 20 μM, rat GluN1-1a/GluN2A-D",virtually no activity
same,activity at GluK2 kainate receptors,[3],virtually no activity
same,activity at nicotinic receptors,[4],"inhibited some, but not all, nicotinic receptors"
same,effect on NMDA-activated responses mediated by GluN1/GluN2 NMDA receptors,[5],not modulated; also recorded: did not affect
same,solubility at 90 min,[6],37 µM
